Experimental findings from PubChem BioAssay (NCI) are described below.

What all share (assay): NCI tumour cell line growth inhibition, 48 h
The test system of test [1] is A498 renal.
Test [2] concerns A549 NSCLC.
The subject of test [3] is CCRF-CEM leukemia.
Test [4] has as its system EKVX NSCLC.
For test [5], the system named is LXFL 529 NSCLC.
For test [6], the system named is NCI-H460 lung.
For test [7], the system named is NCI-H522 lung.
Test [8] concerns SK-MEL-5 melanoma.
The subject of test [9] is SK-OV-3 ovarian.
For test [10], the system named is HL-60(TB) leukemia.

Each structure is given as a SMILES string.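 Compound exposure: 48 hours, 5 concentrations, 96-well plates. Abbreviation: GI50, concentration required for 50% inhibition of growth. TGI denotes the concentration required for complete inhibition of growth.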

In the case of `OCCN1CCN(CCO)Cc2ccccc2OCCOc2ccccc2C1`, the TGI in [1], in test [2], in test [3], in [4], in [5] and in [6] was above 100 µM each time. The TGI in test [7], in test [8] and in [9] was above 100 µM each time.
Take `COc1ccc2[nH]c3c4c(c5cc(C(C)(C)C)ccc5c3c2c1)C(=O)N(c1ccccc1)C4=O`: the TGI was 61.6 µM in [1]; above 100 µM in [2]; above 100 µM in test [4]; above 100 µM in test [10]; above 100 µM in test [5]; above 100 µM in test [6]. The TGI in [7], in [8] and in test [9] was above 100 µM throughout.
With `CS(=O)(=O)CCNCc1ccc(-c2ccc3ncnc(Nc4ccc(OCc5ccccc5)c(C(F)(F)F)c4)c3c2)o1`, the GI50 in test [1] was 6.51 µM; in test [2], 8.23 µM; in test [3], 7.29 µM; in [4], 7.87 µM; in [10], 5.65 µM; in [6], 4.8 µM. Further, the GI50 is 5.02 µM in test [7], 3.55 µM in [8] and 7.19 µM in test [9]. Moreover, the TGI in test [1] was 25 µM; in test [2], above 25 µM; in test [3], above 23.1 µM; in [4] it was above 25 µM; in test [10], 13.3 µM; in test [6] it was 9.34 µM. The TGI in test [7] was 9.94 µM; in [8], 6.87 µM; in test [9], above 22.1 µM.
Turning to `CC1(C)CCC(=O)c2c(O)ccc(O)c21`, the TGI in [2], in test [4], in test [5], in test [7], in test [8] and in test [9] was above 100 µM in each case.
For `Nc1nc(N)c2nc(CNc3ccc(C(=O)CC(CCC(=O)O)C(=O)O)cc3)cnc2n1` (stereo unspecified), the GI50 in test [1] is 3.15 µM; in [2] it was 0.153 µM; in [3], 0.0562 µM; in test [4], 0.517 µM; in test [10] it was below 0.018 µM; in test [6], 0.127 µM. The GI50 was 0.47 µM in [7] and 0.45 µM in test [8]. Also, the TGI in test [1], in [2], in [3], in [4], in test [10] and in test [6] was above 100 µM each time. For the same compound, the TGI in test [7], in test [8] and in test [9] was above 100 µM throughout.
In the case of `Nc1ncc(-c2cnn(C3CCNCC3)c2)cc1-c1nc2ccccc2o1`, the GI50 in test [1] is 1.53 µM; in test [2], 1.2 µM; in test [3] it was 0.235 µM; in [4], 4.4 µM; in [10] it was 0.472 µM; in test [6] it was 0.998 µM. Besides, the values for the GI50 in [7], in [8] and in test [9] were 0.757 µM, 2.03 µM and 1.11 µM, respectively. Moreover, the TGI came out at 3.46 µM in test [1]; 4.27 µM in test [2]; 0.677 µM in test [3]; 17.8 µM in test [4]; 1.66 µM in [10]; 2.54 µM in test [6]. Moreover, the TGI was determined as 2.4 µM in test [7], 5.47 µM in test [8] and 5.78 µM in [9].
Take `CS(=O)(=O)c1ccc(N/N=C/c2c(-c3ccc(S(C)(=O)=O)cc3)[nH]c3ccc(F)cc23)cc1`: the GI50 in test [1] is 1.39 µM; in test [2], 7.98 µM; in [3], 1.2 µM; in [4], 40.2 µM; in test [10], 2.59 µM; in [6], 1.77 µM. The GI50 in test [7] is 2.08 µM; in test [8], 0.792 µM; in [9] it was 3.27 µM. The TGI was 4.88 µM in test [1]; above 50 µM in test [2]; above 50 µM in test [3]; above 50 µM in test [4]; above 50 µM in test [10]; above 50 µM in test [6]. Besides, the values for the TGI in test [7], in test [8] and in test [9] were above 50 µM, 1.5 µM and above 50 µM, respectively.
As for `CC[C@H](C)c1occ2c(O)c(C(=O)O)c(=O)cc-2c1C`, the TGI is 93.5 µM in test [1]; above 100 µM in test [2]; 53.5 µM in [3]; above 100 µM in test [4]; 41.7 µM in test [10]; 60.6 µM in test [6]. For the same compound, the TGI in test [7] was found to be 30.7 µM; in [8] it was 38.1 µM; in test [9], 63.7 µM.
For `O=C(OC(C(=O)O)C(OC(=O)c1ccccc1)C(=O)O)c1ccccc1` (stereo unspecified) (tested in a mixture with another compound), the TGI in test [1] is above 100 µM; in [2], above 100 µM; in [3] it was above 100 µM; in [4] it was above 100 µM; in test [10] it was above 37.8 µM; in test [6] it was above 100 µM. The TGI in test [7] is 55.4 µM; in test [8] it was 43.2 µM; in [9], above 100 µM.
For `CCOC(=O)C12CCCC1(O)N(NC(=O)c1cccc(Cl)c1)C(C)=C2C(=O)OC` (stereo unspecified), the TGI in test [1], in [2], in test [4], in test [10], in [5] and in test [6] was above 100 µM throughout. Moreover, the TGI in test [7], in test [8] and in [9] was above 100 µM in each case.
As to `CSc1nc(NC2OCC(OC(C)=O)C(OC(C)=O)C2OC(C)=O)c(N=CC=Nc2c(NC3OCC(OC(C)=O)C(OC(C)=O)C3OC(C)=O)nc(SC)n(C)c2=O)c(=O)n1C` (stereo unspecified), the TGI in [1], in test [2], in [4], in test [10], in test [5] and in [6] was above 100 µM throughout. The TGI in test [7], in [8] and in test [9] was above 100 µM throughout.
